Legend:
[1] = test system: E. multilocularis metacestode vesicles; experiment: Phosphoglucose isomerase (PGI) release assay (damage-marker release) on metacestode vesicles; format: cell-based, Echinococcus multilocularis; conditions: 10 μM; for PGI d5 (relative PGI release): 5 days; for PGI d12 (relative PGI release): 12 days
[2] = test system: E. multilocularis metacestode vesicles; experiment: Metacestode vesicle viability assay (ATP, CellTiter-Glo); format: cell-based, Echinococcus multilocularis
Experimental: Viability was assessed after 12 days using the same metacestode vesicles as for the PGI release assay. Triton X-100 was added to each well to a final concentration of 0.1 %. Subsequently the metacestode vesicles were broken mechanically and 50 μL of the supernatant was mixed with 50 μL of CellTiter-Glo® buffer (Promega, Dübendorf, Switzerland). Measurements were performed on a HIDEX Sense microplate reader.

[3] = overview screen, singlets, relative to 0.1 % Triton X-100, DMSO subtracted
[4] = overview screen, 10 μM, singlets, 12 days, relative to DMSO control
[5] = confirmation screen, triplicates, mean
[6] = confirmation screen, 10 μM, triplicates, mean, 12 days

Structure (SMILES) | PGI d5 (relative PGI release) [1, 3] | PGI d12 (relative PGI release) [1, 3] | Viability d12 (relative viability) ([2]; 10 µM) | Viability d12 (relative viability) [2, 4] | PGI d5 (relative PGI release) [1, 5] | PGI d12 (relative PGI release) [1, 5] | Viability d12 (relative viability) [2, 6]
O=C(/C=C/n1cnc(-c2cc(C(F)(F)F)cc(C(F)(F)F)c2)n1)NNc1cnccn1 [MMV1593517] | 1.037% | -18.0019% | 95.9515% | – | – | – | –
C[C@@]1(O)[C@H](O)[C@@H](CO)O[C@H]1n1ccc2c(N)ncnc21 [MMV1593519] | 0.01923% | 0.1259% | – | 152.992% | – | – | –
[N-]=[N+]=N[C@H]1C[C@H](n2ccc(=O)[nH]c2=O)O[C@@H]1CO [MMV1593520] | 0.5917% | -8.089% | – | 90.373% | – | – | –
CC(C)Nc1nc2cc(Cl)c(Cl)cc2n1[C@H]1O[C@@H](CO)[C@H](O)[C@@H]1O [MMV1593521] | 1.092% | -0.5297% | – | 80.7959% | – | – | –
O=C(Nc1ccc(-c2ccccc2)cc1)C1=C(O)C(Cc2ccccc2)OC1=O (stereo not drawn) [MMV1593531] | 4.793% | 88.1717% | – | 16.5533% | 0.17% | 1.55% | 49.52%
O=C(Nc1ncc(Cc2cccc3ccccc23)s1)C1CCCCC1 [MMV1593532] | -1.117% | -3.615% | – | 94.209% | – | – | –
C[C@H]1[C@@H](c2cccc(C(F)(F)F)c2)OC(=O)N1C(=O)NCc1cncc2ccccc12 [MMV1593533] | -2.428% | -25.2459% | – | 85.501% | – | – | –
CCNC(=O)Nc1cc(-c2ccccc2)c(-c2cncc(C(=O)O)c2)cn1 [MMV1593534] | -2.168% | -24.3929% | – | 81.2426% | – | – | –
CCCCCCC1c2ccc(O)cc2Oc2cc(O)ccc21 [MMV1593535] | 1.318% | -18.7037% | – | 92.5147% | – | – | –
Fc1ccc(-c2nc(-c3c[nH]c4ccc(Br)cc34)[nH]c2-c2ccc(F)cc2)cc1 [MMV1593537] | 27.6196% | 72.794% | – | 8.099% | 0.49% | -0.0663% | 69.22%
Cl.NC1(C(=O)O)CCP(=O)(O)CC1 (stereo not drawn) [MMV1593538] | -1.639% | -13.1352% | – | 39.7446% | – | – | –
O=[N+]([O-])c1ccc2c(CCc3c[nH]c4ccccc34)c[nH]c2c1 [MMV1593539] | 1.886% | 90.6206% | – | 72.058% | – | – | –
COc1ccc2cc3[n+](cc2c1OCCN(CCn1cncn1)Cc1ccc(F)cc1F)CCc1cc2c(cc1-3)OCO2 [MMV1593540] | 1.275% | 36.6613% | – | 37.1562% | – | – | –
Nc1nc(Nc2ccc3nc(-c4ccc(F)cc4)cc(N)c3c2)cc(-c2ccccc2)n1 [MMV1593541] | 4.554% | -2.81% | – | 23.9637% | – | – | –
OCCCCn1cnc2c(O)nc(NCc3ccc(Cl)c(Cl)c3)nc21 [MMV1593542] | -1.805% | -12.5973% | – | 68.6346% | – | – | –
COc1cc(C(C(=O)NC2CCCCC2)N(C(=O)Cc2c[nH]c3ccccc23)c2ccc(C(C)C)cc2)cc(OC)c1OC (stereo not drawn) [MMV1593544] | 0.03783% | 0.3627% | – | 100.386% | – | – | –
CC1(C)C[C@H]1C(=O)N/C(=C\CCCCSC[C@@H](N)C(=O)O)C(=O)O.[Na+] [MMV1613559] | -0.3777% | -1.053% | – | 85.3181% | – | – | –
NC(=O)[C@@H]1CC[C@@H]2CN1C(=O)N2OS(=O)(=O)O [MMV1613560] | -1.526% | -13.4159% | – | 46.8418% | – | – | –

Structure (SMILES) | PGI d5 (relative PGI release) [1, 3] | PGI d12 (relative PGI release) [1, 3] | Viability d12 (relative viability) ([2]; 10 µM) | Viability d12 (relative viability) [2, 4] | PGI d5 (relative PGI release) [1, 5] | PGI d12 (relative PGI release) [1, 5] | Viability d12 (relative viability) [2, 6]
Cc1ncc([N+](=O)[O-])n1CC(O)CN1CCOCC1 (stereo not drawn) [MMV1613562] | 0.195% | -6.037% | – | 97.4765% | – | – | –
COc1cc(Cc2cnc(N)nc2N)c2c(c1OC)OC(C1CC1)C=C2 (stereo not drawn) [MMV1613563] | -0.539% | -1.956% | – | 145.38% | – | – | –
C=C[C@]1(C)C[C@@H](OC(=O)CS[C@@H]2C[C@H]3CC[C@@H](C2)N3C)[C@]2(C)[C@H](C)CC[C@]3(CCC(=O)[C@H]32)[C@@H](C)[C@@H]1O [MMV1633674] | -1.377% | 19.1844% | 92.0635% | – | – | – | –
CC(C)c1cc2c(cc1S(=O)(=O)O)[C@@]1(C)CCC[C@@](C)(C(=O)O)[C@@H]1CC2 [MMV1633675] | -5.75% | -3.32% | – | 100.907% | – | – | –
Nc1nc2c(ncn2[C@@H]2O[C@H](CO)[C@@H](O)[C@H]2F)c(=O)[nH]1 [MMV1633677] | -0.3308% | 49.9588% | – | 216.057% | – | – | –
CC[C@@]1(O)C(=O)OCc2c1cc1n(c2=O)Cc2cc3c(CN(C)C)c(O)ccc3nc2-1.Cl [MMV1633678] | 0.263% | -2.724% | – | 288.666% | – | – | –
CCc1ccccc1OCCN1CCCCCC1 [MMV1633962] | 1.217% | -18.8642% | – | 159.976% | – | – | –
O=C(O)/C=C/C=C/c1cccc(Oc2cc(Cl)cc(Cl)c2)c1 [MMV1633963] | 0.04404% | 0.4233% | – | 136.634% | – | – | –
O=C(NCCN1CCCCC1)c1cccc(C(F)(F)F)c1 [MMV1633964] | 0.4856% | -18.3006% | – | 94.8358% | – | – | –
COc1c(NC(=O)[C@H]2CC[C@@H](COc3ccc([N+](=O)[O-])cc3)CC2)c(F)cc2c(=O)c(C(=O)O)cn(C3CC3)c12 [MMV1633965] | 0.7075% | -11.0947% | – | 49.6807% | – | – | –
Nc1nnnn1CCOc1c2[nH]c3ccc(Cl)cc3c2cc2c1[nH]c1ccc(Cl)cc12 [MMV1633966] | 3.53% | 16.3673% | – | 104.455% | – | – | –
CCOC(=O)Nc1cc(NC(C)CC(C)CN(CC)CC)c2nc(-c3ccccc3)c(-c3ccccc3)nc2n1 (stereo not drawn) [MMV1633967] | -2.798% | -20.9085% | – | 104.121% | – | – | –
Nc1nc(-c2ccccc2)nc2[nH]nc(Nc3ccc(C(F)(F)F)cc3)c12 [MMV1633968] | 0.2239% | 0.02121% | – | 133.404% | – | – | –
O=C(O)c1ccc(-c2ccc(O[C@H]3O[C@H](CO)[C@@H](O)[C@H](O)[C@@H]3O)cc2)cc1 [MMV1633970] | 0.1129% | -1.296% | – | 109.047% | – | – | –
CCOc1noc2cc(OCCC3CCN(c4ccc(C)nn4)CC3)ccc12 [MMV1634071] | 0.1516% | -20.1339% | – | 88.166% | – | – | –
CCC(C)(C)c1ccc(CC(C)CN2C[C@@H](C)O[C@@H](C)C2)cc1.Cl (stereo partly drawn) [MMV1634358] | 0.7921% | -20.4097% | – | 23.2957% | – | – | –
CN(C/C=C/C#CC(C)(C)C)Cc1cccc2ccccc12 [MMV1634359] | -1.48% | -21.017% | – | 186.198% | – | – | –
